Experimental findings from publication PMC6934184, “Selective DNA-PKcs inhibition extends the therapeutic index of localized radiotherapy and chemotherapy” (The Journal of Clinical Investigation, 2019) are described below.

This assay deals with T1, IKBKE (IKK epsilon) (Homo sapiens, UniProt Q14164).
T1 construct: purchased Thermo Fisher Scientific (Life Technologies) SelectScreen
The experiment in a line: SelectScreen Z'LYTE. It is filed as biochemical. The method in brief: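 NU5455 was profiled across the SelectScreen Broad panel of kinase activity and binding assays. Z'LYTE reactions such as CSF1R ran at apparent Km ATP, while the Adapta CAMK1 assay used ATP listed as 10. Values are given as percent.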

T1 sequence (Q14164 whole entry): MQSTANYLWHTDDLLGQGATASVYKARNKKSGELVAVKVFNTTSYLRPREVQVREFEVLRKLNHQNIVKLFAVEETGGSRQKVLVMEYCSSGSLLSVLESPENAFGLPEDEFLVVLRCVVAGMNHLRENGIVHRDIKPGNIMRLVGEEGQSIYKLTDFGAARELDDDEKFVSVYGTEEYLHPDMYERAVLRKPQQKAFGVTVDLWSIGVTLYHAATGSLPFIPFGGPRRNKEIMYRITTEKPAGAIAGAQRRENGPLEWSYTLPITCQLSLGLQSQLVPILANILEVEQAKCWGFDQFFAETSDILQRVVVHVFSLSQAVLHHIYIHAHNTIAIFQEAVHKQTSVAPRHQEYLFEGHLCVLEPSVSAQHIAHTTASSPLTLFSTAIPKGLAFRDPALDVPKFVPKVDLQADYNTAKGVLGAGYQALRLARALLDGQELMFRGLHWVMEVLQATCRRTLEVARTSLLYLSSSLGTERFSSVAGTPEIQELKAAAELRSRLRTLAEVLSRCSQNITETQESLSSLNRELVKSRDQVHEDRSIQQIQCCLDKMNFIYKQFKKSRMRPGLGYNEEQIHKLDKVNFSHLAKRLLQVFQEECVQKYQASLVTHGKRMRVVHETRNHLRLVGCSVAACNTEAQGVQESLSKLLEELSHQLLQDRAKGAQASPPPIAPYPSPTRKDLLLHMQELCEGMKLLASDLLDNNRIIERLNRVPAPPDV

As for `CN(C(=O)CN1CCOCC1)c1ccc2sc3c(-c4cccc5c(=O)cc(N6CC7CCC(C6)O7)oc45)cccc3c2c1` [NU5455], the inhibition (commonly the change of the read-out against control, counted positive when it falls) at 1 µM was -0.7%.
